Source: US20220315578A1, “BRD9 BIFUNCTIONAL DEGRADERS AND THEIR METHODS OF USE” (NOVARTIS AG, priority 2019, published 2022)

Target: T1, BRD9-GFP (Homo sapiens, UniProt Q9H8M2)
T1 construct: CHYSEL (2A cis-acting hydrolase element) remnant after GFP; mCherry is split off as a separate protein (C); expressed in transfected cells; host or cells: HEK293A cells (Invitrogen R70507), lentiviral transduction with pLenti6-BRD9-GFP-CHYSEL-mCherry, blasticidin selection
T1 sequence (Q9H8M2 1-597): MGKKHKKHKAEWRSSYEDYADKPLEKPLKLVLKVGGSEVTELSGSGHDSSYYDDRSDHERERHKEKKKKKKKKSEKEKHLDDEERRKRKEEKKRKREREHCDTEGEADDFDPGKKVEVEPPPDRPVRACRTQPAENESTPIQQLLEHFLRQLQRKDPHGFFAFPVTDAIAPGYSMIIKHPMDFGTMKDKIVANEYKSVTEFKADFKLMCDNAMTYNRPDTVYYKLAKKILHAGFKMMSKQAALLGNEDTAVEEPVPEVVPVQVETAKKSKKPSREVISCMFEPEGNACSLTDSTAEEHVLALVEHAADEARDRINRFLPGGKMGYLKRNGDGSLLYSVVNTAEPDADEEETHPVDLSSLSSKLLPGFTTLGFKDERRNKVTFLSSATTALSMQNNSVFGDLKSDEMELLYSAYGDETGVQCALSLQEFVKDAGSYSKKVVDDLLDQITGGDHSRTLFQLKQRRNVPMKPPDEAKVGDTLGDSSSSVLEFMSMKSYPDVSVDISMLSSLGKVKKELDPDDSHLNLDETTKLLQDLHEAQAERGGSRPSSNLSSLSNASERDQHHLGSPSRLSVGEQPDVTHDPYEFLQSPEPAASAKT
Experiment: BRD9-GFP protein abundance flow cytometry assay in HEK293A cells
Format: cell-based
Conditions: HEK293A-BRD9-GFP-CHYSEL-mCherry cells; for BRD9 Deg Amax %: 24 h, % protein remaining at the concentration at which maximum degradation is seen; for DC50: 24 h at 37° C., 10-point 1:3 dilution, concentration at which 50% maximal degradation was observed
Experimental: Compounds of the invention were tested in the following cellular assays. The terms in Table 1 are defined as follows: DC50 refers to the concentration at which 50% maximal degradation was observed; deg Amax is the extent of degradation and the value refers to the % protein remaining at the concentration at which maximum degradation is seen.
BRD9-GFP protein abundance flow cytometry assay in HEK293A cells: Degradation of BRD9 was measured in HEK293A cells expressing BRD9-GFP and mCherry from a stably integrated second generation bicistronic BRD9-GFP-CHYSELmCherry construct. Reduction of the GFP signal measured by flow cytometry served as readout for BRD9 degradation after degrader treatment.
The bicistronic BRD9-GFP-CHYSEL-mCherry construct is based on a pLenti6-DEST vector backbone where a GFP-CHYSEL-mCherry cassette was synthesized and inserted downstream of the DEST cassette by Gibson assembly resulting in the new gateway compatible vector pLenti6-DEST-GFP-CHYSEL-mCherry to allow Gateway cloning with pENTR221-BRD9 (w/o ATG) to obtain the final sensor construct pLenti6-BRD9-GFP-CHYSEL-mCherry.
HEK293 Å-BRD9-GFP-CHYSEL-mCherry sensor cells were generated by lentiviral vector transduction using the pLenti6-BRD9-GFP-CHYSEL-mCherry sensor construct described before. […] The mix was incubated for another 20 min at RT and then added to 1 ml of a freshly prepared suspension of HEK293FT cells in a well of a 6-well plate (concentration 1.2×10^6 cells/ml). 1 day after transfection, the medium was replaced with 1.5 ml of complete growth medium (DMEM high Glucose+10% FCS+1% L-Glutamine+1% NEAA+1% NaPyr.). 48 h post transfection supernatant containing viral transducing particles was collected and frozen at −80° C. […] Infection was performed with […] of collected supernatant containing viral transducing particles in 1 ml medium including 8 μg/ml polybrene. 24 h post infection, stably transfected cells were selected with blasticidin at a concentration of 8 μg/ml.
Stable HEK293 Å-BRD9-GFP-CHYSEL-mCherry cells were maintained in complete growth medium (DMEM high Glucose+10% FCS+1% L-Glutamine+1% NEAA+1% NaPyr.) with passaging performed twice per week. On Day 0, HEK293 Å-BRD9-GFP-CHYSEL-mCherry cells were seeded at 10,000 cells/well in a 96-well microtiter plate in […] complete medium. On Day 1, cells were treated in duplicate with 10-point 1:3 dilution series of compound using the HP D300 Digital Dispenser (Tecan). DMSO concentrations were normalized across the plate to 0.1%. On Day 2, after 24 h of incubation at 37° C., treatment media was discarded, cells rinsed with 100 ul/well PBS and then detached using 40 ul trypsin/well for 5 min. Trypsin was neutralized with 100 ul/well PBS+20% FCS). Flow cytometry was performed on the samples using the Beckman Coulter CytoFLEX flow cytometer. Cell identification was then performed using forward (FSC) vs. side scatter (SSC) plots. Single cell discrimination is performed using FSC-Width (FSC-W) vs. FSC-Height (FSC-H) plots. Median GFP/mCherry ratio values for 5,000 single cells are used to determine BRD9 levels. Median GFP/mCherry ratio values from HEK293 Å-mCherry are used as a background signal and thus defining 0% BRD9 signal. Median GFP/mCherry ratio values from DMSO treated HEK293 Å-BRD9-GFP-CHYSEL-mCherry are used to define 100% BRD9 signal for subsequent DC50 curves (concentration at 50% BRD9 degradation). Concentration response curves plotting relative reduction of the GFP/mCherry ratio signal (measured by flow cytometry) versus 10 compound concentrations (starting concentration […], 3 fold dilution steps) of the compounds allowed generation of DC50 values. Data is shown in Tables 2 and 3, in which, DC50 refers to the concentration at which 50% maximal degradation was observed; deg Amax is the extent of degradation and the value refers to the % protein remaining at the concentration at which maximum degradation is seen.

Row | BRD9 Deg Amax % [%] | DC50 [µM] | SMILES
1 | 22.70 | 0.002 | COc1cc(-c2cn(C)c(=O)c3cnccc23)cc(OC)c1CCCN1CCC(OC2CCN(C(=O)c3ccc(Cl)c(N4CCC(=O)NC4=O)c3)CC2)CC1 [Compound A28, 1-(2-Chloro-5-(4-((1-(3-(2,6-dimethoxy-4-(2-methyl-1-oxo-1,2-dihydro-2,7-naphthyridin-4-yl)phenyl)propyl)piperidin-4-yl)oxy)piperidine-1-carbonyl)phenyl)dihydropyrimidine-2,4(1H,3H)-dione]
2 | 15.75 | 0.034 | COc1cc(-c2cn(C)c(=O)c3cnccc23)c(OC)cc1CN1CCC(OC2CCN(C(=O)c3ccc(C)c(N4CCC(=O)NC4=O)c3)CC2)CC1 [Compound A29, 1-(5-(4-((1-(2,5-Dimethoxy-4-(2-methyl-1-oxo-1,2-dihydro-2,7-naphthyridin-4-yl)benzyl)piperidin-4-yl)oxy)piperidine-1-carbonyl)-2-methylphenyl)dihydropyrimidine-2,4(1H,3H)-dione]
3 | 13.99 | 0.016 | COc1cc(-c2cn(C)c(=O)c3cnccc23)c(OC)cc1CN1CCC(OC2CCN(C(=O)c3ccc(Cl)c(N4CCC(=O)NC4=O)c3)CC2)CC1 [Compound A30, 1-(2-Chloro-5-(4-((1-(2,5-dimethoxy-4-(2-methyl-1-oxo-1,2-dihydro-2,7-naphthyridin-4-yl)benzyl)piperidin-4-yl)oxy)piperidine-1-carbonyl)phenyl)dihydropyrimidine-2,4(1H,3H)-dione]
4 | 15.11 | 0.01 | COc1ccc(C(=O)N2CCC(OC3CCN(C(=O)/C=C/c4c(OC)cc(-c5cn(C)c(=O)c6cnccc56)cc4OC)CC3)CC2)cc1N1CCC(=O)NC1=O [Compound A31, (E)-1-(5-(4-((1-(3-(2,6-dimethoxy-4-(2-methyl-1-oxo-1,2-dihydro-2,7-naphthyridin-4-yl)phenyl)acryloyl)piperidin-4-yl)oxy)piperidine-1-carbonyl)-2-methoxyphenyl)dihydropyrimidine-2,4(1H,3H)-dione]
5 | 16.20 | 0.006 | COc1ccc(C(=O)N2CCC(OC3CCN(CCc4c(OC)cc(-c5cn(C)c(=O)c6cnccc56)cc4OC)CC3)CC2)cc1N1CCC(=O)NC1=O [Compound A32, 1-(5-(4-((1-(2,6-Dimethoxy-4-(2-methyl-1-oxo-1,2-dihydro-2,7-naphthyridin-4-yl)phenethyl)piperidin-4-yl)oxy)piperidine-1-carbonyl)-2-methoxyphenyl)dihydropyrimidine-2,4(1H,3H)-dione]
6 | 13.30 | 0.034 | COc1cc(-c2cn(C)c(=O)c3cnccc23)cc(OC)c1CN1CCC(OC2CCN(C(=O)c3ccc(C)c(N4CCC(=O)NC4=O)c3)CC2)CC1 [Compound A33, 1-(5-(4-((1-(2,6-Dimethoxy-4-(2-methyl-1-oxo-1,2-dihydro-2,7-naphthyridin-4-yl)benzyl)piperidin-4-yl)oxy)piperidine-1-carbonyl)-2-methylphenyl)dihydropyrimidine-2,4(1H,3H)-dione]
7 | 13.80 | 0.037 | COc1ccc(C(=O)N2CCC(OCCN3CCN(Cc4c(OC)cc(-c5cn(C)c(=O)c6cnccc56)cc4OC)CC3)CC2)cc1N1CCC(=O)NC1=O [Compound A34, 1-(5-(4-(2-(4-(2,6-Dimethoxy-4-(2-methyl-1-oxo-1,2-dihydro-2,7-naphthyridin-4-yl)benzyl)piperazin-1-yl)ethoxy)piperidine-1-carbonyl)-2-methoxyphenyl)dihydropyrimidine-2,4(1H,3H)-dione]
8 | 13.19 | 0.031 | COc1cc(-c2cn(C)c(=O)c3cnccc23)cc(OC)c1CN1CCC(OC2CCN(C(=O)COc3ccc(N4CCC(=O)NC4=O)cc3)CC2)CC1 [Compound A35, 1-(4-(2-(4-((1-(2,6-Dimethoxy-4-(2-methyl-1-oxo-1,2-dihydro-2,7-naphthyridin-4-yl)benzyl)piperidin-4-yl)oxy)piperidin-1-yl)-2-oxoethoxy)phenyl)dihydropyrimidine-2,4(1H,3H)-dione]
9 | 18.42 | 0.039 | COc1cc(-c2cn(C)c(=O)c3cnccc23)cc(OC)c1CN1CCC(OC2CCN(C(=O)c3cccc(N4CCC(=O)NC4=O)c3)CC2)CC1 [Compound A36, 1-(3-(4-((1-(2,6-Dimethoxy-4-(2-methyl-1-oxo-1,2-dihydro-2,7-naphthyridin-4-yl)benzyl)piperidin-4-yl)oxy)piperidine-1-carbonyl)phenyl)dihydropyrimidine-2,4(1H,3H)-dione]
10 | 13.01 | 0.002 | COc1ccc(C(=O)N2CCC(OC3CCN(CCCc4c(OC)cc(-c5cn(C)c(=O)c6cnccc56)cc4OC)CC3)CC2)cc1N1CCC(=O)NC1=O [Compound A37, 1-(5-(4-((1-(3-(2,6-Dimethoxy-4-(2-methyl-1-oxo-1,2-dihydro-2,7-naphthyridin-4-yl)phenyl)propyl)piperidin-4-yl)oxy)piperidine-1-carbonyl)-2-methoxyphenyl)dihydropyrimidine-2,4(1H,3H)-dione]
11 | 15.53 | 0.001 | COc1cc(-c2cn(C)c(=O)c3cnccc23)cc(OC)c1CCN1CCC(OC2CCN(C(=O)c3ccc(Cl)c(N4CCC(=O)NC4=O)c3)CC2)CC1 [Compound A38, 1-(2-Chloro-5-(4-((1-(2,6-dimethoxy-4-(2-methyl-1-oxo-1,2-dihydro-2,7-naphthyridin-4-yl)phenethyl)piperidin-4-yl)oxy)piperidine-1-carbonyl)phenyl)dihydropyrimidine-2,4(1H,3H)-dione]
12 | 16.72 | 0.021 | COc1cc(-c2cn(C)c(=O)c3cnccc23)c(OC)cc1CCN1CCC(OC2CCN(C(=O)c3ccc(Cl)c(N4CCC(=O)NC4=O)c3)CC2)CC1 [Compound A39, 1-(2-Chloro-5-(4-((1-(2,5-dimethoxy-4-(2-methyl-1-oxo-1,2-dihydro-2,7-naphthyridin-4-yl)phenethyl)piperidin-4-yl)oxy)piperidine-1-carbonyl)phenyl)dihydropyrimidine-2,4(1H,3H)-dione]
